Consider 1 compound from article PMC5865651, “Novel inhibitor candidates of TRPV2 prevent damage of dystrophic myocytes and ameliorate against dilated cardiomyopathy in a hamster model” (Oncotarget, 2018).

The series addresses T1, human Cav1.2/β2/α2δ1 L-type calcium channel (Homo sapiens, UniProt Q13936).
T1 construct: host or cells: CHO cells (purchased recombinant cell line)
The series can be described thus: L-type Ca2+ current in human Cav1.2/β2/α2δ1 expressing CHO cells (patch clamp). The series is classed as cell-based. The following applies: CHO cells expressing human Cav1.2/β2/α2δ1 calcium channel, pH 7.4, 15 μM lumin, n = 3, read-out: L-type current, % of control. The procedure: Figure 8 Effect of lumin on the Ca^2+ response and channel activity in HEK293 cells expressing mTRPV2 (A) Inhibition of the 2-APB-induced increase in [Ca^2+]i in HEK293 cells expressing mTRPV2 by lumin. Cells were loaded with fura-2-AM and stimulated with 2-APB (0.3 mM) in the absence or presence of the indicated concentrations of lumin. The fluorescence ratio was measured by a microplate reader and normalized by the maximal value. Data are shown as mean ± SD (n = 5). (B) Lumin blocked the mTRPV2 channel. The current values at −100 mV measured by an every-2-second ramp protocol were plotted. After the current activated by 200 μM 2-APB at pH 6.5 became stable, a mixture of 15 μM lumin and 2-APB was applied to the cells. (C) Effect of lumin on the current-voltage relationship of 2-APB-evoked current. (D) Concentration-dependence of lumin for the inhibition of mTRPV2 current. Data are shown as mean ± SD (n = 3–5) (E) Effect of lumin (15 μM) on L-type Ca^2+ channel activity. The current waveforms of the control cells and the cells 11 minutes after application of 15 μM lumin were superimposed. […]
For the measurement of L-type Ca^2+ currents, human Cav1.2/β2/α2δ1 calcium channel expressing CHO cells were purchased from ChanTest (Cleveland, OH, USA). […] The data were analysed and plotted with Clampfit 9 (Molecular Devices, LLC, Sunnyvale, CA, USA). […]
On the technique in general: The patch-clamp technique gives a direct electrical read-out from membranes.

Structures are written as SMILES.

T1 sequence (Q13936 whole entry): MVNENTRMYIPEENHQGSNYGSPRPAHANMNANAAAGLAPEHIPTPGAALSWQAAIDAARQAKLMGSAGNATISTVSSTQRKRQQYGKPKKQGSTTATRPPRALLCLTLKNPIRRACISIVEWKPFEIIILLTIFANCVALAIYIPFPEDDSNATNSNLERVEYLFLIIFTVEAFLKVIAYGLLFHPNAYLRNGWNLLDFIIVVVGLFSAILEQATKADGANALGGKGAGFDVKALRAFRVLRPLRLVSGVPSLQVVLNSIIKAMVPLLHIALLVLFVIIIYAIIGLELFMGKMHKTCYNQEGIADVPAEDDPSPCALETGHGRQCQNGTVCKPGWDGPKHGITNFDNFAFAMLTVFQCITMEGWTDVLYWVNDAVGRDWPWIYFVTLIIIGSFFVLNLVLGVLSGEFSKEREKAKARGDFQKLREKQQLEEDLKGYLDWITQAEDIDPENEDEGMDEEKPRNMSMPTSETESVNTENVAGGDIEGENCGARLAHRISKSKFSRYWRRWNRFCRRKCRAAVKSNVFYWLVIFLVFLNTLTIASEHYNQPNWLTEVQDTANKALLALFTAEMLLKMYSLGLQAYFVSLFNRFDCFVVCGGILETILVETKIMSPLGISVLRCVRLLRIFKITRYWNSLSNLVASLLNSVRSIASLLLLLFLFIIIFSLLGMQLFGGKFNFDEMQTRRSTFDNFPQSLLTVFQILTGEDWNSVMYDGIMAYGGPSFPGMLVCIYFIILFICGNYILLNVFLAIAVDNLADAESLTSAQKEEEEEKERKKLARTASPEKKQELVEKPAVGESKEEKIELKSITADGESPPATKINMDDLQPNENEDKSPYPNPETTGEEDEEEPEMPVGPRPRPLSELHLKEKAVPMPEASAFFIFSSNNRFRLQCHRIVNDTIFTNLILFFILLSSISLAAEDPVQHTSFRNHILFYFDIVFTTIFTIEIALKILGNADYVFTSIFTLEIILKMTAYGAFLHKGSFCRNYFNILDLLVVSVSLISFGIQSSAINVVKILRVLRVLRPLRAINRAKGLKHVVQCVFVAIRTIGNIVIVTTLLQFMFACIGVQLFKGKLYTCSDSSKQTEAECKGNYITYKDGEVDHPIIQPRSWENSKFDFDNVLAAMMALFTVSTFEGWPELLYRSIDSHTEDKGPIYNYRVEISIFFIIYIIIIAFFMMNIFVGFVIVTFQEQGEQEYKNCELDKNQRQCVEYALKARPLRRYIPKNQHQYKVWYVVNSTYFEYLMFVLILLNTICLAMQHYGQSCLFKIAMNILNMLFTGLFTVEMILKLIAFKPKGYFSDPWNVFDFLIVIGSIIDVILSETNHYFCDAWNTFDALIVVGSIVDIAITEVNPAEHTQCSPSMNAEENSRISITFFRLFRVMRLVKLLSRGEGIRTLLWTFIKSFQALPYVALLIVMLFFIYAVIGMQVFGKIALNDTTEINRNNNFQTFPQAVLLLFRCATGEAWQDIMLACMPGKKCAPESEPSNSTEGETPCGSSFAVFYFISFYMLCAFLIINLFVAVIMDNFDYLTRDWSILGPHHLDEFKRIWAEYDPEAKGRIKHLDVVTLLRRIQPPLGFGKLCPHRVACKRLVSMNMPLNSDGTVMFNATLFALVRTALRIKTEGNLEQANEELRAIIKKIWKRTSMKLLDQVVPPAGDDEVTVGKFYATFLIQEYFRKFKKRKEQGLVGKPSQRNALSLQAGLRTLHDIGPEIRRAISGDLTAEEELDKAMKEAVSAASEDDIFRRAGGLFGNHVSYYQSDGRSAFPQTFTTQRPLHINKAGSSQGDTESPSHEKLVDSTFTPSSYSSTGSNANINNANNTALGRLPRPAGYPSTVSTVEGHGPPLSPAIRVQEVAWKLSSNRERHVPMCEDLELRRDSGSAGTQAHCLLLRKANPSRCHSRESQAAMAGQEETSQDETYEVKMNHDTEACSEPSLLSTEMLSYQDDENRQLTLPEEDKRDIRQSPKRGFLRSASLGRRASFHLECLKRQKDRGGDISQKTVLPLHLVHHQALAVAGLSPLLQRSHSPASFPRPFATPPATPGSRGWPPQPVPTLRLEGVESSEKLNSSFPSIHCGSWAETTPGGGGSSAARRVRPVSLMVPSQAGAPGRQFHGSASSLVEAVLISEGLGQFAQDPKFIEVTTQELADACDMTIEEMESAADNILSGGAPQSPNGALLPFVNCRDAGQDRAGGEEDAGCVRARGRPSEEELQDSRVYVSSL
T1 sequence (Q08289 whole entry partner): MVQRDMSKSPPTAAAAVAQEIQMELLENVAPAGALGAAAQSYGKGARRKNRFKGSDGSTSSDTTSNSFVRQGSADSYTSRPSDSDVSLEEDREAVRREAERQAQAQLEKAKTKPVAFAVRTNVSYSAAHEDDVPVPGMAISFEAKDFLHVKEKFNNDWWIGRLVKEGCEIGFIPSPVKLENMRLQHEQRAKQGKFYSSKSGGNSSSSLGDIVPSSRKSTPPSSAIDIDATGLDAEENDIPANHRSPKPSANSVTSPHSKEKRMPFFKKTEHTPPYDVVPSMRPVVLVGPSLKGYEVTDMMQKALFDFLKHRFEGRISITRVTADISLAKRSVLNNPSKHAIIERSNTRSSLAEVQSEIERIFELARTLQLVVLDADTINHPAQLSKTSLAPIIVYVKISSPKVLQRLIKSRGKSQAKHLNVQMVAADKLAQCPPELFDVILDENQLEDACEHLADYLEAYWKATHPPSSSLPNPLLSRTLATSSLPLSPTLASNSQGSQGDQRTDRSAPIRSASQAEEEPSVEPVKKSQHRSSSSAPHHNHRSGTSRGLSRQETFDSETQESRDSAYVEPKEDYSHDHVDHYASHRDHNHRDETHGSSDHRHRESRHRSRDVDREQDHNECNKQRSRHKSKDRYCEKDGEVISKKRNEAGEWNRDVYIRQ
T1 sequence (P54289 25-956 partner limits assumed): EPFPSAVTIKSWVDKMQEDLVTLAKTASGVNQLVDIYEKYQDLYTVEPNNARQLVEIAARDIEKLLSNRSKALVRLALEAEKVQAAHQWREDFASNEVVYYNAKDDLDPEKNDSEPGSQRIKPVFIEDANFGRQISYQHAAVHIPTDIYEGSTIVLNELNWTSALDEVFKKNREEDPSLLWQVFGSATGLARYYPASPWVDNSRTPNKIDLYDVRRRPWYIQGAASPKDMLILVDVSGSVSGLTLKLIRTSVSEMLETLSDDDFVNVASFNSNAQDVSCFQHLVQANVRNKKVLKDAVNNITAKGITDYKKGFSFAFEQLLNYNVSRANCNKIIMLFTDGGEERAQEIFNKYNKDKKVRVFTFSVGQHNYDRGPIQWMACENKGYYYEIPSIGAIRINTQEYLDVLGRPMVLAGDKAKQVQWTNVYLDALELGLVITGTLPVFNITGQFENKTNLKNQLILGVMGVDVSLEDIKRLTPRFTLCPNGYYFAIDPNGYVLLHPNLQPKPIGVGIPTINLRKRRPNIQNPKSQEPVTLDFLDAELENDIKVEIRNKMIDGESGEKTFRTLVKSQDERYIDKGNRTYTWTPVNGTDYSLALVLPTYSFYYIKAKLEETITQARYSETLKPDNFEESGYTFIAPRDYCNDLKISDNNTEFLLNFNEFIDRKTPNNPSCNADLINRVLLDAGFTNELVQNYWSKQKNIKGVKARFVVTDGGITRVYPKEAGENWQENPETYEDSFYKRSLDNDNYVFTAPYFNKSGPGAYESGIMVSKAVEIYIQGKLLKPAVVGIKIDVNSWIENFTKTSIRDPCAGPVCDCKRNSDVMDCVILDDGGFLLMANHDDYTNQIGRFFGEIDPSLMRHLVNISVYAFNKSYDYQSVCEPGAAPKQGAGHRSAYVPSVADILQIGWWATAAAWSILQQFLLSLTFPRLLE
T1 sequence (P54289 957-1103 partner limits assumed): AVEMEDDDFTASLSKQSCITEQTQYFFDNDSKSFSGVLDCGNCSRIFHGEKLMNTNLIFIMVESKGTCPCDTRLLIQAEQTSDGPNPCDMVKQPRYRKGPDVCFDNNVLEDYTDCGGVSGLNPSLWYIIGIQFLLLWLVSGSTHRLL

On to `CCN1C=CC(=CC=C(C=Cc2cc[n+](CC)c3ccccc23)c2cc[n+](CC)c3ccccc23)c2ccccc21.[I-].[I-]` [lumin, 4,4′-[3-[2-[1-ethyl-4(1H)-quinolinylidene]ethylidene]-1-propene-1,3-diyl]bis(1-ethylquinolinium) diiodide], for which the activity at 11 min, 15 μM worked out at 96.6 ± 8.7%.
